Laboratory results published in article PMC10025480 (Frontiers in Pharmacology, 2023).

Assays:
[1] = tested on: human vascular smooth muscle preparations; conditions: ref Papp et al., 2019; Danahay et al., 2020b; cited from earlier work
[2] = cited from earlier work
[3] = tested on: human bronchial smooth muscle; conditions: cited from earlier work
delta opioid = delta opioid (Homo sapiens, UniProt P41143); assay: SelectScreen cell-based GPCR assay, delta opioid; conditions: 10 µM
Excerpt: (§1) Profiling of compound activity versus a select panel of diverse GPCRs was undertaken by ThermoFisher Scientific (United Kingdom) via their SelectScreen cell-based GPCR assay panel. Detailed experimental protocols on this assay platform can be found at (https://www.thermofisher.com/content/dam/LifeTech/migration/en/filelibrary/services/discovery-research/pdfs.par.36410.file.dat/sscg-brochure.pdf). Briefly these assays detect agonist or antagonist activity using cell lines with the GPCR of interest over-expressed, driving the expression of a reporter gene encompassing a mammalian-optimized Beta-lactamase. Test compounds are incubated with the specific cell lines at the defined final concentration for 5 or 16 h (depending on the cell line specifics) before quantification of effect.

5-HT2B = 5-HT2B (Homo sapiens, UniProt P41595); assay: SelectScreen cell-based GPCR assay, 5-HT2B; conditions: 10 µM
Excerpt: as §1

Sequence of delta opioid (P41143 whole entry): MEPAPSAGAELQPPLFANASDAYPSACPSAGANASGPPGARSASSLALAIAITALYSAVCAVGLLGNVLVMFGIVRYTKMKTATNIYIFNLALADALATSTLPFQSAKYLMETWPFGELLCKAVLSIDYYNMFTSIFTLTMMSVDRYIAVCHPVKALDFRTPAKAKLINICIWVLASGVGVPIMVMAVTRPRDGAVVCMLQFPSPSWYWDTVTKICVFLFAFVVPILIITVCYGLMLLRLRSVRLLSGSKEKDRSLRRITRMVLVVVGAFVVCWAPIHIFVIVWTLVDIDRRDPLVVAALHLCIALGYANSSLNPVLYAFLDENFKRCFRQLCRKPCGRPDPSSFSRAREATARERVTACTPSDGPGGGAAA
Sequence of 5-HT2B (P41595 whole entry): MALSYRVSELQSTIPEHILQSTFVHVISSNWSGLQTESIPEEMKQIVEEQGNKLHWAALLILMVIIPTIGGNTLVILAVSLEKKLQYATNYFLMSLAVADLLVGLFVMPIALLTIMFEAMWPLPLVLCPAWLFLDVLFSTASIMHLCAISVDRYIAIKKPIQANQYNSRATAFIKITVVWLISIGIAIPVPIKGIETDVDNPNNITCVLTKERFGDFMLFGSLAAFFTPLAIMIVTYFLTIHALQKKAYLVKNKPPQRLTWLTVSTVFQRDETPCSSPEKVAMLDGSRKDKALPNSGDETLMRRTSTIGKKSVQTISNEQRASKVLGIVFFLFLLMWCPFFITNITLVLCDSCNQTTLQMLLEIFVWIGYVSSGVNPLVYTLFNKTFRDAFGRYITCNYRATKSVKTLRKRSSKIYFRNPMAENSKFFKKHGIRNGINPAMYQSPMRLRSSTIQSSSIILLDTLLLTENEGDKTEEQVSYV

For `CCc1c(C)nc(SCC(=O)Nc2nc(-c3ccc(OC)cc3)cs2)[nH]c1=O` [T16Ainh-A01], the “activity in human vascular smooth muscle preparations” value [1] is listed as “failed to show activity”.

For ETX001, the “effect on lung function in vivo” value [2] is given as “no effect” and the “effect on freshly isolated human bronchial smooth muscle tone” value [3] is given as “no effect”.

In the case of `COc1ccccc1/C=N/NC(=O)COc1ccc(Cl)cc1C` [Ani9], the “inhibition of delta opioid” value (delta opioid) is reported as at least 50% and the “inhibition of 5-HT2B” value (5-HT2B) is reported as at least 50%.
